Assay results taken from patent US10167262B2, “Herbicidal substituted 3-arylpyrazoles” (FMC CORPORATION, priority 2014, dated 2019).
Like-named read-outs stand apart in the source and are kept apart here.

How the values were obtained:
Format in all cases: in vivo
[1] = system: yellow nutsedge (Cyperus esculentus); assay: Test C pre-/postemergence greenhouse test, plant response rating 0-100; details: Cyperus; for pest or weed control at 62 g/ha: 62 g ai/ha; for pest or weed control at 125 g/ha: 125 g ai/ha; for pest or weed control at 250 g/ha: 250 g ai/ha
How it was run: (§1)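 Pre- and postemergence greenhouse test: seeds sown in loam/sand and treated preemergence, or plants at 2–18 cm (1- to 4-leaf stage) in peat-based medium sprayed postemergence, with compounds in non-phytotoxic solvent plus surfactant. Visual rating versus untreated controls after 13–15 days, 0 (no effect) to 100 (complete control).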

soybean (Glycine max) = assay: as above; details: Glycine max; for plant injury at 62 g/ha: 62 g ai/ha; for plant injury at 125 g/ha: 125 g ai/ha; for plant injury at 250 g/ha: 250 g ai/ha
How it was run: as §1

[2] = system: giant foxtail (Setaria faberii); assay: as above; details: Setaria faberi; for pest or weed control at 62 g/ha: 62 g ai/ha; for pest or weed control at 125 g/ha: 125 g ai/ha; for pest or weed control at 250 g/ha: 250 g ai/ha
How it was run: as §1

corn (Zea mays) = assay: as above; details: Zea mays; for Corn plant response rating (crop injury, 0 = no effect, 100 = complete kill) at 250 g/ha: 250 g ai/ha
How it was run: as §1

[3] = system: galium (catchweed bedstraw, Galium aparine); assay: as above; details: Galium; for pest or weed control at 62 g/ha: 62 g ai/ha; for pest or weed control at 125 g/ha: 125 g ai/ha; for pest or weed control at 250 g/ha: 250 g ai/ha
How it was run: as §1

[4] = system: johnsongrass (Sorghum halepense); assay: as above; details: Sorghum halepense; for pest or weed control at 62 g/ha: 62 g ai/ha; for pest or weed control at 125 g/ha: 125 g ai/ha; for pest or weed control at 250 g/ha: 250 g ai/ha
How it was run: as §1

[5] = system: winter wheat (Triticum aestivum); assay: as above; details: Triticum aestivum; for plant injury at 62 g/ha: 62 g ai/ha; for plant injury at 125 g/ha: 125 g ai/ha; for plant injury at 250 g/ha: 250 g ai/ha
How it was run: as §1

[6] = system: pigweed (Amaranthus retroflexus); assay: as above; details: Amaranthus retroflexus; for pest or weed control at 62 g/ha: 62 g ai/ha; for pest or weed control at 250 g/ha: 250 g ai/ha
How it was run: as §1

[7] = system: lambsquarters (Chenopodium album); assay: as above; details: Chenopodium album; for pest or weed control at 62 g/ha: 62 g ai/ha; for pest or weed control at 125 g/ha: 125 g ai/ha; for pest or weed control at 250 g/ha: 250 g ai/ha
How it was run: as §1

[8] = system: Italian ryegrass (Lolium multiflorum); assay: as above; details: Lolium multiflorum; for pest or weed control at 62 g/ha: 62 g ai/ha; for pest or weed control at 125 g/ha: 125 g ai/ha; for pest or weed control at 250 g/ha: 250 g ai/ha
How it was run: as §1

wild oat (Avena fatua) = assay: Test C postemergence greenhouse test, plant response rating 0-100; details: Avena fatua, post-emergence
How it was run: (§2)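 Visual rating vs. controls, 0 (no effect) to 100 (complete control), 13–15 d after postemergence treatment. Potted plants, 1- to 4-leaf stage (2–18 cm), greenhouse-held.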

kochia (Kochia scoparia) = assay: as above; details: Bassia scoparia, post-emergence
How it was run: as §2

[9] = system: chickweed (common chickweed, Stellaria media); assay: as above; details: Stellaria media, post-emergence
How it was run: as §2

[10] = post-emergence, Postemergence, read-out: Plant response rating (0 to 100), Nutsedge, Yellow
[11] = post-emergence, Postemergence, scale 0 to 100
[12] = pre-emergence, Preemergence, read-out: Plant response rating, Nutsedge, Yellow
[13] = pre-emergence, Preemergence, 500 g ai/ha
[14] = post-emergence, Postemergence, read-out: Plant response rating (0 to 100), Soybean
[15] = pre-emergence, Preemergence, read-out: Plant response rating, Soybean
[16] = post-emergence, Postemergence, read-out: Plant response rating (0 to 100), Foxtail, Giant
[17] = pre-emergence, Preemergence, read-out: Plant response rating, Foxtail, Giant
[18] = post-emergence, Postemergence, read-out: Plant response rating (0 to 100), Galium
[19] = pre-emergence, Preemergence, read-out: Plant response rating, Galium
[20] = post-emergence, Postemergence, read-out: Plant response rating (0 to 100), Johnsongrass
[21] = pre-emergence, Preemergence, read-out: Plant response rating, Johnsongrass
[22] = post-emergence, Postemergence, read-out: Plant response rating (0 to 100), Wheat
[23] = pre-emergence, Preemergence, read-out: Plant response rating, Wheat
[24] = post-emergence, Postemergence, read-out: Plant response rating (0 to 100), Lambsquarters
[25] = pre-emergence, Preemergence, read-out: Plant response rating, Lambsquarters
[26] = post-emergence, Postemergence, read-out: Plant response rating (0 to 100), Ryegrass, Italian
[27] = pre-emergence, Preemergence, read-out: Plant response rating, Ryegrass, Italian

Cn1cc(C(=O)c2ccccc2)c(-c2cc(Cl)cc(Cl)c2)n1 [Compound 54, [3-(3,5-dichlorophenyl)-1-methyl-1H-pyrazol-4-yl]phenylmethanone]
60%: pest or weed control at 62 g/ha (kochia (Kochia scoparia); 62 g ai/ha)
95%: pest or weed control at 250 g/ha ([6]; pre-emergence, Preemergence) | pest or weed control at 500 g/ha [6, 13]
10%: Corn plant response rating (crop injury, 0 = no effect, 100 = complete kill) at 250 g/ha (corn (Zea mays); pre-emergence, Preemergence) | Corn plant response rating (crop injury, 0 = no effect, 100 = complete kill) at 500 g/ha (corn (Zea mays); [13])
55%: pest or weed control at 125 g/ha [7, 24] | pest or weed control at 250 g/ha [7, 11]
98%: pest or weed control at 62 g/ha ([6]; post-emergence, Postemergence, read-out: Plant response rating (0 to 100), Pigweed)
30%: pest or weed control at 62 g/ha [7, 25]
90%: pest or weed control at 62 g/ha ([6]; pre-emergence, Preemergence, read-out: Plant response rating, Pigweed) | pest or weed control at 62 g/ha ([9]; 62 g ai/ha)
100%: pest or weed control at 125 g/ha ([6]; post-emergence, Postemergence, 125 g ai/ha, read-out: Plant response rating (0 to 100), Pigweed) | pest or weed control at 250 g/ha [6, 11] | pest or weed control at 500 g/ha [7, 13] | pest or weed control at 125 g/ha ([9]; 125 g ai/ha) | pest or weed control at 250 g/ha ([9]; 250 g ai/ha, scale 0 to 100)
5%: pest or weed control at 125 g/ha [2, 16] | pest or weed control at 250 g/ha [2, 11] | pest or weed control at 250 g/ha [3, 11] | pest or weed control at 500 g/ha [3, 13]
70%: pest or weed control at 250 g/ha (kochia (Kochia scoparia); 250 g ai/ha, scale 0 to 100)
40%: pest or weed control at 125 g/ha [7, 25]
65%: pest or weed control at 125 g/ha (kochia (Kochia scoparia); 125 g ai/ha)
0%: pest or weed control at 62 g/ha [1, 10] | pest or weed control at 125 g/ha [1, 10] | pest or weed control at 250 g/ha [1, 11] | pest or weed control at 62 g/ha [1, 12] | pest or weed control at 125 g/ha [1, 12] | pest or weed control at 250 g/ha ([1]; pre-emergence, Preemergence) | plant injury at 62 g/ha (soybean (Glycine max); [14]) | plant injury at 125 g/ha (soybean (Glycine max); [14]) | plant injury at 250 g/ha (soybean (Glycine max); [11]) | plant injury at 62 g/ha (soybean (Glycine max); [15]) | plant injury at 125 g/ha (soybean (Glycine max); [15]) | plant injury at 250 g/ha (soybean (Glycine max); pre-emergence, Preemergence) | plant injury at 500 g/ha (soybean (Glycine max); [13]) | pest or weed control at 31 g/ha ([2]; post-emergence, Postemergence, 31 g ai/ha, read-out: Plant response rating (0 to 100), Foxtail, Giant) | pest or weed control at 62 g/ha [2, 16] | pest or weed control at 62 g/ha [2, 17] | pest or weed control at 125 g/ha [2, 17] | pest or weed control at 250 g/ha ([2]; pre-emergence, Preemergence) | pest or weed control at 500 g/ha [2, 13] | plant injury at 31 g/ha (corn (Zea mays); post-emergence, Postemergence, 31 g ai/ha) | plant injury at 62 g/ha (corn (Zea mays); post-emergence, Postemergence, 62 g ai/ha) | plant injury at 125 g/ha (corn (Zea mays); post-emergence, Postemergence, 125 g ai/ha) | Corn plant response rating (crop injury, 0 = no effect, 100 = complete kill) at 250 g/ha (corn (Zea mays); [11]) | Corn plant response rating (crop injury, 0 = no effect, 100 = complete kill) at 62 g/ha (corn (Zea mays); pre-emergence, Preemergence, 62 g ai/ha) | Corn plant response rating (crop injury, 0 = no effect, 100 = complete kill) at 125 g/ha (corn (Zea mays); pre-emergence, Preemergence, 125 g ai/ha) | pest or weed control at 31 g/ha ([3]; post-emergence, Postemergence, 31 g ai/ha, read-out: Plant response rating (0 to 100), Galium) | pest or weed control at 62 g/ha [3, 18] | pest or weed control at 125 g/ha [3, 18] | pest or weed control at 62 g/ha [3, 19] | pest or weed control at 125 g/ha [3, 19] | pest or weed control at 250 g/ha ([3]; pre-emergence, Preemergence) | pest or weed control at 62 g/ha [4, 20] | pest or weed control at 125 g/ha [4, 20] | pest or weed control at 250 g/ha [4, 11] | pest or weed control at 62 g/ha [4, 21] | pest or weed control at 125 g/ha [4, 21] | pest or weed control at 250 g/ha ([4]; pre-emergence, Preemergence) | pest or weed control at 500 g/ha [4, 13] | plant injury at 62 g/ha [5, 22] | plant injury at 125 g/ha [5, 22] | plant injury at 250 g/ha [5, 11] | plant injury at 62 g/ha [5, 23] | plant injury at 125 g/ha [5, 23] | plant injury at 250 g/ha ([5]; pre-emergence, Preemergence) | plant injury at 500 g/ha [5, 13] | pest or weed control at 62 g/ha [8, 26] | pest or weed control at 125 g/ha [8, 26] | pest or weed control at 250 g/ha [8, 11] | pest or weed control at 62 g/ha [8, 27] | pest or weed control at 125 g/ha [8, 27] | pest or weed control at 250 g/ha ([8]; pre-emergence, Preemergence) | pest or weed control at 500 g/ha [8, 13] | pest or weed control at 62 g/ha (wild oat (Avena fatua); 62 g ai/ha) | pest or weed control at 125 g/ha (wild oat (Avena fatua); 125 g ai/ha) | pest or weed control at 250 g/ha (wild oat (Avena fatua); 250 g ai/ha, scale 0 to 100) | pest or weed control at 31 g/ha ([9]; 31 g ai/ha)
25%: pest or weed control at 500 g/ha [1, 13]
50%: pest or weed control at 62 g/ha [7, 24] | pest or weed control at 250 g/ha ([7]; pre-emergence, Preemergence)
